Measurements reported in patent US20040162286A1, “Substituted 6-(2-tolyl)-triazolopyrimidines as fungicides” (priority 2001, published 2004).

Assays:
Format in all cases: in vivo
[1] = tested on: Alternaria solani; assay: Fungicidal control of early blight on tomatoes, protective spray; conditions: tomato plants, untreated plants infected to 90%
Description: The active compounds, separately or together, were formulated as a 10% emulsion in a mixture of 70% by weight of cyclohexanone, 20% by weight of Nekanil® LN (Lutensol® AP6, wetting agent having emulsifying and dispersant action based on ethoxylated alkylphenols) and 10% by weight of Wettol® EM (nonionic emulsifier based on ethoxylated castor oil) and diluted with water to the desired concentration. Young seedlings of tomato plants of the variety “Groβe Fleischtomate St. Pierre” were grown in pots to the 2 to 4 leaf stage. These plants were sprayed to run-off with an aqueous suspension, containing the concentration of active ingredient mentioned in the table below, prepared from a stock solution containing 10% of the active ingredient, 85% cyclohexanone and 5% emulsifier. The next day, the treated plants were inoculated with an aqueous suspension of Alternaria solani containing 0.2×10^6 spores per ml. Then the trial plants were immediately transferred to a humid chamber. After 6 days at 20 to 23° C. and a relative humidity close to 100%, the extent of fungal attack on the leaves was visually assessed as % diseased leaf area. The test was conducted as described in Comparison trial 1.

[2] = tested on: Blumeria graminis f. sp. tritici; assay: Fungicidal control of powdery mildew on wheat, protective spray; conditions: 63 ppm active ingredient, assessed after 7 days, untreated plants infected to 85%
Description: The active compounds, separately or together, were formulated as a 10% emulsion in a mixture of 70% by weight of cyclohexanone, 20% by weight of Nekanil® LN (Lutensol® AP6, wetting agent having emulsifying and dispersant action based on ethoxylated alkylphenols) and 10% by weight of Wettol® EM (nonionic emulsifier based on ethoxylated castor oil) and diluted with water to the desired concentration. The first fully developed leaves of pot grown wheat of the variety “Kanzler” were sprayed to run-off with an aqueous suspension, containing the concentration of active ingredient or their mixture mentioned in the table below, prepared from a stock solution containing 10% of the active ingredient, 85% cyclohexanone and 5% emulsifier. The next day the treated plants were inoculated with spores of Blumeria graminis f. sp. tritici by shaking heavily infestated stock plants over the treated pots. After cultivation in the greenhouse for 7 days at 22-26° C. and a relative humidity between 60 to 90% the extent of fungal attack on the leaves was visually assessed as % diseased leaf area. The test was conducted as described in Comparison trial 2.

[3] = tested on: Plasmopara viticola; assay: Fungicidal control of grape downy mildew (Comparison Trial 3, inoculation the next day); conditions: 250 ppm active ingredient; grape cuttings; inoculated next day; untreated plants infected to 80%
Description: The active compounds, separately or together, were formulated as a 10% emulsion in a mixture of 70% by weight of cyclohexanone, 20% by weight of Nekanil® LN (Lutensol® AP6, wetting agent having emulsifying and dispersant action based on ethoxylated alkylphenols) and 10% by weight of Wettol® EM (nonionic emulsifier based on ethoxylated castor oil) and diluted with water to the desired concentration. Grape cuttings of the cultivar “Müller-Thurgau” were grown in pots to the 4 to 5 leaf stage. These plants were sprayed to run-off with an aqueous suspension, containing the concentration of active ingredient or their mixture mentioned in the table below, prepared from a stock solution containing 10% of the active ingredient, 85% cyclohexanone and 5% emulsifier. The plants were allowed to air-dry. The next day they were inoculated with an aqueous spore suspension of Plasmopara viticola by spraying it at the lower leaf-side. Then the trial plants were immediately transferred for 24 h to a humid chamber with 22-24° C. and a relative humidity close to 100%. For a period of 5 days, cultivation followed in a greenhouse at 20-25° C. and a relative humidity about 50-80%. To stimulate the outbreak of the disease symptoms, the plants were transferred to a humid chamber again for 24 hours. Then the extent of fungal attack on the lower leaf surface was visually assessed as % diseased leaf area.

SMILES | infection (% diseased leaf area) ([1]; 250 ppm active ingredient) | further results
C=C(C)CN(CC)c1c(-c2ccc(F)cc2C)c(Cl)nc2ncnn12 [I-28] | no infection | –
Cc1cc(F)ccc1-c1c(Cl)nc2ncnn2c1NC(C)C(F)(F)F (racemic) [I-44] | no infection | –
Cc1cccc(F)c1-c1c(Cl)nc2ncnn2c1NC1CCCC1 [I-10] | no infection | –
CCC(C)Nc1c(-c2ccc(F)cc2C)c(Cl)nc2ncnn12 (racemic) [I-35] | no infection | –
Cc1cccc(F)c1-c1c(Cl)nc2ncnn2c1N1CCC(C)CC1 [I-9] | no infection | –
Cc1cc(F)ccc1-c1c(Cl)nc2ncnn2c1NC(C)C(C)(C)C (racemic) [I-41] | no infection | –
Cc1cc(Cl)ccc1-c1c(Cl)nc2ncnn2c1NCC(F)(F)F [I-83] | no infection | –
Cc1cc(F)ccc1-c1c(Cl)nc2ncnn2c1N1CCC(C)CC1 [I-30] | no infection | –
C=C(C)CN(CC)c1c(-c2c(C)cccc2F)c(Cl)nc2ncnn12 [I-7] | no infection | –
Cc1ccccc1-c1c(Cl)nc2ncnn2c1NC(C)C(F)(F)F (centres unmarked) [Compound A] | – | infection (% diseased leaf area) [2]: 30%; infection (% diseased leaf area, lower leaf surface) [3]: 80%; infection (% diseased leaf area) ([1]; 63 ppm active ingredient, assessed after 6 days): 15%
Cc1cc(F)ccc1-c1c(Cl)nc2ncnn2c1NC(C)C(C)C (racemic) [I-38] | no infection | –
Cc1cc(Cl)ccc1-c1c(Cl)nc2ncnn2c1N1CCC(C)CC1 [I-66] | no infection | –
